Measured values from PMC4628894 (Bioorganic & medicinal chemistry letters, 2015).
Like-named read-outs stand apart in the source and are kept apart here.

Key:
rat brain CRF1 receptor = settings: read-out: IC50, rat brain CRF1 receptor; previous report; cited from earlier work
human CRF1 receptor = molecular target: T1, human CRF1 receptor (Homo sapiens, UniProt P34998); type: binding; settings: for fold loss of binding affinity at CRF1 relative to 2: compared to compound 2; for fold gain in binding affinity at CRF1 relative to 17: compared to compound 17; for fold increase in binding affinity at CRF1 relative to 21: compared to compound 21
T1 sequence (P34998 24-415): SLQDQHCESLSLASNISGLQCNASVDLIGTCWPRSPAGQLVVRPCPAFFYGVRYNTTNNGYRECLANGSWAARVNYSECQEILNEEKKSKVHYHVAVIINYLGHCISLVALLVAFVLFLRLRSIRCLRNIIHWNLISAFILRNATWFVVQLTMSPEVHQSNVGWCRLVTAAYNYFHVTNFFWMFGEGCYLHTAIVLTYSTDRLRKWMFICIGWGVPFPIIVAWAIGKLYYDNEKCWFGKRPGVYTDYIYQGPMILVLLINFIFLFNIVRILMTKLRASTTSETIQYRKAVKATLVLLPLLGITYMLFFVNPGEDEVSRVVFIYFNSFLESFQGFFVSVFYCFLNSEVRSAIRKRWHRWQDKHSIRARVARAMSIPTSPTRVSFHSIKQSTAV

CRF1 receptor = settings: read-out: Ki for the CRF1 receptor, previously reported, cited from earlier work

Structure (SMILES)	IC50 (rat brain CRF1 receptor) [nM]	fold increase in binding affinity at CRF1 relative to 21 (human CRF1 receptor)	further results
CCCCN(CC)c1cc(C)nc2c1NC(=O)CN2c1ccc(C(C)C)cc1Br [Compound 2]	0.7		
CCCCN(CC)c1cc(C)nc2c1NC(=O)CN2c1ccc(Cl)cc1Cl [Compound 6]	0.49		
CCCCN(CC)c1cc(C)nc2c1NC(=O)CN2c1ccc(OC)cc1C [Compound 9]	0.92		
Cc1cc(N(C)C)c2c(n1)N(c1ccc(C(C)C)cc1Br)CC(=O)N2 [Compound 17]			fold loss of binding affinity at CRF1 relative to 2 (human CRF1 receptor): ~ 75 fold
CCN(C)c1cc(C)nc2c1NC(=O)CN2c1ccc(C(C)C)cc1Br [Compound 18]			fold loss of binding affinity at CRF1 relative to 2 (human CRF1 receptor): ~ 6.8 fold; fold gain in binding affinity at CRF1 relative to 17 (human CRF1 receptor): ~ 11 fold
Cc1cc(N(C)C)c2c(n1)N(c1ccc(C(C)C)cc1Br)CC(=O)N2CCF [Compound 21]			fold gain in binding affinity at CRF1 relative to 17 (human CRF1 receptor): ~ 3 fold
CCN(CC)c1cc(C)nc2c1N(CCF)C(=O)CN2c1ccc(C(C)C)cc1Br [Compound 22]		~ 8 fold	
Cc1cc(N(C)C)c2c(n1)N(c1ccc(C(C)C)cc1Br)CC(=O)N2C/C=C/CF [Compound 23]		~ 4 fold	
Cc1cc(N(C)C)c2c(n1)N(c1ccc(C(C)C)cc1Br)CC(=O)N2CCCCF [Compound 24]		~ 2.7 fold	
CCCN(CCC)c1cc(C)nc2c(-c3cnc(N(C)C)cc3C)c(C)nn12 [Compound R121919]			Ki (CRF1 receptor; ref 26): 3.5 nM; Ki (CRF1 receptor; ref 27): 3 ± 0.16 nM
